From BindingDB's records for patent US10626103 (Celgene Quanticel Research, 2020)

Target: Lysine-specific histone demethylase 1A (Homo sapiens, UniProt O60341)
Test: In Vitro Enzyme Inhibition Assay - LSD-1
Description: The enzymatic assay of LSD1 activity is based on Time Resolved-Fluorescence Resonance Energy Transfer (TR-FRET) detection. […] Plates were read by EnVision Multilabel Reader in TR-FRET mode (excitation at 320 nm, emission at 615 nm and 665 nm) after 1 hour incubation at room temperature.

IC50: < 100 nM
SMILES: COc1ccc(-c2c(-c3ccc(C#N)c(F)c3)cc(C(=O)N3CCC[C@@H](N)C3)n2CCCC(=O)O)cc1 [US10626103, Example 41]
